Experimental data from patent publication US6358885B1, “Substituted phenylheterocyclic herbicides” (Mississippi State University, priority 1992, dated 2002).

Columns and labels:
barley = test: Test B preemergence/postemergence greenhouse plant response rating 0 to 10; format: in vivo, Hordeum vulgare; details: for Plant response rating, Barley: 0 to 10 scale
In short: (§1)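 Planted seeds are treated preemergence with compound dissolved in a non-phytotoxic solvent, while postemergence applications go onto plants of two to eighteen cm. Plants stay in the greenhouse twelve to sixteen days and are then rated visually relative to controls.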

barnyardgrass = test: as above; format: in vivo, Echinochloa crus-galli; details: for Plant response rating, Barnyardgrass: 0 to 10 scale
In short: as §1

blackgrass = test: as above; format: in vivo, Alopecurus myosuroides; details: for Plant response rating, Blackgrass: 0 to 10 scale
In short: as §1

chickweed = test: as above; format: in vivo, Stellaria media; details: for Plant response rating, Chickweed: 0 to 10 scale
In short: as §1

corn [1] = test: as above; format: in vivo, Zea mays; details: for Plant response rating, Corn: 0 to 10 scale
In short: as §1

sorghum = test: as above; format: in vivo, Sorghum bicolor; details: for Plant response rating, Sorghum: 0 to 10 scale
In short: as §1

sugar beet = test: as above; format: in vivo, Beta vulgaris; details: for Plant response rating, Sugar beet: 0 to 10 scale
In short: as §1

velvetleaf = test: as above; format: in vivo, Abutilon theophrasti; details: for Plant response rating, Velvetleaf: 0 to 10 scale
In short: as §1

purple nutsedge = test: as above; format: in vivo, Cyperus rotundus; details: for Plant response rating, Nutsedge: 0 to 10 scale
In short: as §1

bedstraw = test: Test C preemergence/postemergence greenhouse plant response rating 0 to 100; format: in vivo, Galium aparine; details: for Plant response rating, Bedstraw: 125 g/ha, 0 to 100 scale
In short: (§2)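 Compounds in non-phytotoxic solvent went onto sandy loam before emergence (seeded one day earlier) or onto plants at the one-to-four leaf stage. Duck salad was treated via flood water (~2.5 cm, maintained) over silt loam.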

corn [2] = test: as above; format: in vivo, Zea mays; details: for Plant response rating, Corn: 125 g/ha, 0 to 100 scale
In short: as §2

COCOc1cc(-c2nn3c(c2Cl)CCCC3)c(F)cc1Cl [Compound 58]
Plant response rating, Barley (barley; POSTEMERGENCE, Rate 50 g/ha): 6
Plant response rating, Barley (barley; PREEMERGENCE, Rate 50 g/ha): 1
Plant response rating (0 to 10 scale), Barley (barley; PREEMERGENCE, Rate 200 g/ha): 4
Plant response rating, Barley (barley; Rate 200 g/ha, POSTEMERGENCE): 8
Plant response rating, Barnyardgrass (barnyardgrass; POSTEMERGENCE, Rate 50 g/ha): 6
Plant response rating, Barnyardgrass (barnyardgrass; PREEMERGENCE, Rate 50 g/ha): 4
Plant response rating (0 to 10 scale), Barnyardgrass (barnyardgrass; PREEMERGENCE, Rate 200 g/ha): 7
Plant response rating, Barnyardgrass (barnyardgrass; Rate 200 g/ha, POSTEMERGENCE): 9
Plant response rating, Blackgrass (blackgrass; POSTEMERGENCE, Rate 50 g/ha): 6
Plant response rating, Blackgrass (blackgrass; PREEMERGENCE, Rate 50 g/ha): 4
Plant response rating (0 to 10 scale), Blackgrass (blackgrass; PREEMERGENCE, Rate 200 g/ha): 7
Plant response rating, Blackgrass (blackgrass; Rate 200 g/ha, POSTEMERGENCE): 7
Plant response rating, Chickweed (chickweed; POSTEMERGENCE, Rate 50 g/ha): 9
Plant response rating, Chickweed (chickweed; PREEMERGENCE, Rate 50 g/ha): 10
Plant response rating (0 to 10 scale), Chickweed (chickweed; PREEMERGENCE, Rate 200 g/ha): 10
Plant response rating, Chickweed (chickweed; Rate 200 g/ha, POSTEMERGENCE): 10
Plant response rating, Corn (corn [1]; POSTEMERGENCE, Rate 50 g/ha): 5
Plant response rating, Corn (corn [1]; PREEMERGENCE, Rate 50 g/ha): 2
Plant response rating (0 to 10 scale), Corn (corn [1]; PREEMERGENCE, Rate 200 g/ha): 4
Plant response rating, Corn (corn [1]; Rate 200 g/ha, POSTEMERGENCE): 6
Plant response rating, Sorghum (sorghum; POSTEMERGENCE, Rate 50 g/ha): 4
Plant response rating, Sorghum (sorghum; PREEMERGENCE, Rate 50 g/ha): 2
Plant response rating (0 to 10 scale), Sorghum (sorghum; PREEMERGENCE, Rate 200 g/ha): 3
Plant response rating, Sorghum (sorghum; Rate 200 g/ha, POSTEMERGENCE): 6
Plant response rating, Sugar beet (sugar beet; POSTEMERGENCE, Rate 50 g/ha): 10
Plant response rating, Sugar beet (sugar beet; PREEMERGENCE, Rate 50 g/ha): 9
Plant response rating (0 to 10 scale), Sugar beet (sugar beet; PREEMERGENCE, Rate 200 g/ha): 10
Plant response rating, Sugar beet (sugar beet; Rate 200 g/ha, POSTEMERGENCE): 10
Plant response rating, Velvetleaf (velvetleaf; POSTEMERGENCE, Rate 50 g/ha): 9
Plant response rating, Velvetleaf (velvetleaf; PREEMERGENCE, Rate 50 g/ha): 10
Plant response rating (0 to 10 scale), Velvetleaf (velvetleaf; PREEMERGENCE, Rate 200 g/ha): 10
Plant response rating, Velvetleaf (velvetleaf; Rate 200 g/ha, POSTEMERGENCE): 10
Plant response rating, Nutsedge (purple nutsedge; POSTEMERGENCE, Rate 50 g/ha): 5
Plant response rating, Nutsedge (purple nutsedge; PREEMERGENCE, Rate 50 g/ha): 0
Plant response rating (0 to 10 scale), Nutsedge (purple nutsedge; PREEMERGENCE, Rate 200 g/ha): 0
Plant response rating, Nutsedge (purple nutsedge; Rate 200 g/ha, POSTEMERGENCE): 9
Plant response rating, Bedstraw (bedstraw; POSTEMERGENCE): 100
Plant response rating (0 to 100), Bedstraw (bedstraw; POSTEMERGENCE, Rate 2 g/ha): 60
Plant response rating, Bedstraw (bedstraw; PREEMERGENCE): 70
Plant response rating (0 to 100), Bedstraw (bedstraw; PREEMERGENCE, Rate 2 g/ha): 0
Plant response rating (0 to 100), Bedstraw (bedstraw; Rate 8 g/ha, POSTEMERGENCE): 100
Plant response rating (0 to 100), Bedstraw (bedstraw; Rate 8 g/ha, PREEMERGENCE): 10
Plant response rating (0 to 100), Bedstraw (bedstraw; Rate 31 g/ha, PREEMERGENCE): 50
Plant response rating, Corn (corn [2]; POSTEMERGENCE): 65
Plant response rating (0 to 100), Corn (corn [2]; POSTEMERGENCE, Rate 2 g/ha): 40
Plant response rating, Corn (corn [2]; PREEMERGENCE): 30
Plant response rating (0 to 100), Corn (corn [2]; PREEMERGENCE, Rate 2 g/ha): 0
Plant response rating (0 to 100), Corn (corn [2]; Rate 8 g/ha, POSTEMERGENCE): 40
Plant response rating (0 to 100), Corn (corn [2]; Rate 8 g/ha, PREEMERGENCE): 0
Plant response rating (0 to 100), Corn (corn [2]; Rate 31 g/ha, POSTEMERGENCE): 50
Plant response rating (0 to 100), Corn (corn [2]; Rate 31 g/ha, PREEMERGENCE): 0
